Test results published in US20110288072A1, “Use of ivabradine for obtaining medicaments intended for the treatment of endothelial dysfunction” (LES LABORATOIRES SERVIER, priority 2007, published 2011).

Assays:
[1] = test system: dyslipidaemic mice, and rats with heart failure; assay: Cardiac frequency after 3 months' treatment in the animal models; assay type: in vivo, mouse, rat; conditions: 10 mg/kg per day for 3 months
[2] = test system: rats with heart failure; assay: Endothelial function of isolated coronary and mesenteric arteries (myograph) in rats with heart failure; assay type: in vivo, rat; conditions: 10 mg/kg per day for 3 months
Protocol: (§1) The impact of treatment with ivabradine on endothelial function was studied in two pathological animal models, dyslipidaemic mice, and rats with heart failure, on 4 different vascular beds, renal and cerebral arteries in the mouse, coronary and mesenteric arteries in the rats. Study of the endothelial function comprises measuring the capacity of the vessel to dilate in response to various stimuli, such as acetylcholine, or measuring the increase in flow in the vessel.
(§2) Some animals were treated with ivabradine, 10 mg/kg per day for 3 months. Dyslipidaemic mice, rats with heart failure, healthy mice (Wild type) and healthy rats, untreated, acted as controls. At the end of the treatment period, the arteries were isolated and mounted in a myograph in order to measure their diameter after the application of acetylcholine or to measure the increase in flow. In order to explore more closely the mechanism associated with endothelial dysfunction, inhibitors of the principal pathways of vasodilation were tested: a free-radical chelating agent, a nitrogen monoxide production inhibitor, a prostacyclin pathway inhibitor.

[3] = test system: dyslipidaemic mice; assay: Endothelial function and compliance of isolated renal and cerebral arteries (myograph) in dyslipidaemic mice; assay type: in vivo, mouse; conditions: 10 mg/kg per day for 3 months
Protocol: as §1, §2
The compliance (capacity of the vessel to dilate as the transmural pressure increases) of the cerebral arteries of the mice was also evaluated.

[4] = test system: dyslipidaemic mice, and rats with heart failure; assay: Mechanism of endothelial dysfunction explored with inhibitors of the principal pathways of vasodilation; assay type: in vivo, mouse, rat; conditions: mechanism of the beneficial effects; 10 mg/kg per day for 3 months
Protocol: as §2

For `COc1cc2c(cc1OC)CC(=O)N(CCCN(C)C[C@H]1Cc3cc(OC)c(OC)cc31)CC2` [ivabradine, 3-{3-[{[(7S)-3,4-dimethoxybicyclo [4.2.0]octa-1,3,5-trien-7-yl]-methyl}-(methyl)-amino]-propyl}-7,8-dimethoxy-1,3,4,5-tetrahydro-2H-3-benzazepin-2-one], the “reduction in cardiac frequency” value [1] was 10-20%, the “endothelial dysfunction (capacity to dilate) in the coronary artery” value ([2]; HF rat, FIG. 1A) was “completely prevents entothelial dysfunction” and the “capacity of the mesenteric artery to dilate” value ([2]; treated HF rat compared with untreated HF rat, FIG. 1B) was “appreciably improved”. The “endothelial dysfunction (capacity to dilate) in the cerebral artery” value ([3]; DL mouse, FIG. 1C, D) was “completely prevents entothelial dysfunction”, the “endothelial dysfunction (capacity to dilate) in the renal artery” value ([3]; DL mouse, FIG. 1C, D) was “completely prevents entothelial dysfunction” and the “compliance of the isolated cerebral arteries” value ([3]; treated mice) was “improved”. The nitrogen monoxide pathway [4] was “preservation of the nitrogen monoxide pathway” and the oxidative stress [4] was “decrease in oxidative stress”.
